From article PMC10423561, “Effects of the CYP3A inhibitors, voriconazole, itraconazole, and fluconazole on the pharmacokinetics of osimertinib in rats” (PeerJ, 2023)
“And” between values parts separate entries of the source, which are not always exact repeats. Equal values may be shown once.

Assays:
[1] = Stability of OSIM in rat plasma QC samples (bench-top, autosampler, freeze-thaw, long-term); assay type: in vitro ADME; conditions: for B-LQC RE, AVERAGE / B-LQC measured concentration, AVERAGE / B-LQC RE / B-LQC measured concentration: nominal 5.02 ng/ml; for B-LQC RE, AVERAGE / B-LQC measured concentration, AVERAGE / B-MQC RE, AVERAGE / B-MQC measured concentration, AVERAGE / B-HQC RE, AVERAGE / B-HQC measured concentration, AVERAGE: average of 4; for B-LQC RE / B-LQC measured concentration / B-MQC RE / B-MQC measured concentration / B-HQC RE / B-HQC measured concentration: single replicates; for B-MQC RE, AVERAGE / B-MQC measured concentration, AVERAGE / B-MQC RE / B-MQC measured concentration: nominal 200.8 ng/ml; for B-HQC RE, AVERAGE / B-HQC measured concentration, AVERAGE / B-HQC RE / B-HQC measured concentration: nominal 401.6 ng/ml; for Relative stability: n=4
Protocol: Bench-top stability was tested by placing the pretreatment samples at room temperature ([…]) for 6 h, autosampler stability was assessed by placing the prepared sample in the injector for 24 h, freeze-thaw stability was determined to be adequate over at least three cycles (from −30 °C to 25 °C), and long-term stability was assessed to be at least one month before sample preparation (at −30 °C for 30 d). For all stability results, the average %RE of OSIM ranged from −11.04% to 7.48% across the three QC concentrations, with the %CV less than 6.42% (Table S4).

[2] = set-up: method as in Brown et al., 2017; conditions: with ICZ compared with OSIM administered alone; ref Brown et al., 2017; cited from earlier work

With `C=CC(=O)Nc1cc(Nc2nccc(-c3cn(C)c4ccccc34)n2)c(OC)cc1N(C)CCN(C)C` [OSIM, Osimertinib] the “B-LQC RE, AVERAGE” value ([1]; -30℃(30 day)) was -11.04%, the “B-LQC measured concentration, AVERAGE” value ([1]; -30℃(30 day)) was 4.47 ng/mL and the “B-LQC RE” value ([1]; -30℃(30 day)) was -11.88% and -13.96% and -8.90% and -9.43%. For the same molecule, the B-LQC measured concentration ([1]; -30℃(30 day)) was 4.42 ng/mL and 4.32 ng/mL and 4.57 ng/mL and 4.55 ng/mL, the “B-MQC RE, AVERAGE” value ([1]; -30℃(30 day)) was -0.87% and the “B-MQC measured concentration, AVERAGE” value ([1]; -30℃(30 day)) was 199.05 ng/mL. The “B-MQC RE” value ([1]; -30℃(30 day)) was 4.20% and -2.59% and -1.56% and -3.53%, the B-MQC measured concentration ([1]; -30℃(30 day)) was 209.23 ng/mL and 195.60 ng/mL and 197.67 ng/mL and 193.72 ng/mL and the “B-HQC RE, AVERAGE” value ([1]; -30℃(30 day)) was -1.09%. The “B-HQC measured concentration, AVERAGE” value ([1]; -30℃(30 day)) was 397.22 ng/mL, the “B-HQC RE” value ([1]; -30℃(30 day)) was -0.61% and 0.80% and -5.35% and the B-HQC measured concentration ([1]; -30℃(30 day)) was 399.15 ng/mL and 404.80 ng/mL and 380.13 ng/mL. For the same molecule, the “B-LQC RE, AVERAGE” value ([1]; AUTO(24h)) was -6.71%, the “B-LQC measured concentration, AVERAGE” value ([1]; AUTO(24h)) was 4.68 ng/mL and the “B-LQC RE” value ([1]; AUTO(24h)) was -12.78% and -6.93% and -1.98% and -5.16%. The B-LQC measured concentration ([1]; AUTO(24h)) was 4.38 ng/mL and 4.67 ng/mL and 4.92 ng/mL and 4.76 ng/mL, the “B-MQC RE, AVERAGE” value ([1]; AUTO(24h)) was -1.60% and the “B-MQC measured concentration, AVERAGE” value ([1]; AUTO(24h)) was 197.59 ng/mL. The “B-MQC RE” value ([1]; AUTO(24h)) was -1.66% and 4.91% and -1.78% and -7.87%, the B-MQC measured concentration ([1]; AUTO(24h)) was 197.46 ng/mL and 210.66 ng/mL and 197.22 ng/mL and 184.99 ng/mL and the “B-HQC RE, AVERAGE” value ([1]; AUTO(24h)) was -4.24%. The “B-HQC measured concentration, AVERAGE” value ([1]; AUTO(24h)) was 384.55 ng/mL, the “B-HQC RE” value ([1]; AUTO(24h)) was -2.81% and -5.55% and -7.95% and -0.66% and the B-HQC measured concentration ([1]; AUTO(24h)) was 390.30 ng/mL and 379.32 ng/mL and 369.66 ng/mL and 398.95 ng/mL. The “B-LQC RE, AVERAGE” value ([1]; ROOM(6h)) was 7.48%, the “B-LQC measured concentration, AVERAGE” value ([1]; ROOM(6h)) was 5.40 ng/mL and the “B-LQC RE” value ([1]; ROOM(6h)) was 11.63% and 8.45% and 4.43% and 5.39%. For the same molecule, the B-LQC measured concentration ([1]; ROOM(6h)) was 5.60 ng/mL and 5.44 ng/mL and 5.24 ng/mL and 5.29 ng/mL, the “B-MQC RE, AVERAGE” value ([1]; ROOM(6h)) was 5.16% and the “B-MQC measured concentration, AVERAGE” value ([1]; ROOM(6h)) was 211.16 ng/mL. For the same molecule, the “B-MQC RE” value ([1]; ROOM(6h)) was 7.61% and 11.08% and 3.27% and -1.32%, the B-MQC measured concentration ([1]; ROOM(6h)) was 216.07 ng/mL and 223.04 ng/mL and 207.36 ng/mL and 198.15 ng/mL and the “B-HQC RE, AVERAGE” value ([1]; ROOM(6h)) was -3.51%. The “B-HQC measured concentration, AVERAGE” value ([1]; ROOM(6h)) was 387.49 ng/mL, the “B-HQC RE” value ([1]; ROOM(6h)) was -6.10% and -7.91% and 2.69% and -2.75% and the B-HQC measured concentration ([1]; ROOM(6h)) was 377.12 ng/mL and 369.84 ng/mL and 412.42 ng/mL and 390.57 ng/mL. The “B-LQC RE, AVERAGE” value ([1]; after RTF(-30℃30 day)) was 6.03%, the “B-LQC measured concentration, AVERAGE” value ([1]; after RTF(-30℃30 day)) was 5.32 ng/mL and the “B-LQC RE” value ([1]; after RTF(-30℃30 day)) was -1.95% and 2.78% and 10.68% and 12.61%. For the same molecule, the B-LQC measured concentration ([1]; after RTF(-30℃30 day)) was 4.92 ng/mL and 5.16 ng/mL and 5.56 ng/mL and 5.65 ng/mL, the “B-MQC RE, AVERAGE” value ([1]; after RTF(-30℃30 day)) was -2.85% and the “B-MQC measured concentration, AVERAGE” value ([1]; after RTF(-30℃30 day)) was 195.09 ng/mL. The “B-MQC RE” value ([1]; after RTF(-30℃30 day)) was -3.40% and 0.97% and -3.10% and -5.85%, the B-MQC measured concentration ([1]; after RTF(-30℃30 day)) was 193.98 ng/mL and 202.74 ng/mL and 194.57 ng/mL and 189.05 ng/mL and the “B-HQC RE, AVERAGE” value ([1]; after RTF(-30℃30 day)) was -9.46%. For the same molecule, the “B-HQC measured concentration, AVERAGE” value ([1]; after RTF(-30℃30 day)) was 363.62 ng/mL, the “B-HQC RE” value ([1]; after RTF(-30℃30 day)) was -9.22% and -10.28% and -11.32% and -7.01% and the B-HQC measured concentration ([1]; after RTF(-30℃30 day)) was 364.57 ng/mL and 360.31 ng/mL and 356.15 ng/mL and 373.44 ng/mL. The Relative stability ([1]; prepared sample in autosampler for 24 h, range over LQC/MQC/HQC) was 94.15-103.09%, the Relative stability ([1]; rat plasma, long-term at −30 °C for 30 days, range over LQC/MQC/HQC) was 88.96-98.91% and the Relative stability ([1]; rat plasma, room temperature for 6 h, range over LQC/MQC/HQC (5, 200, 400 ng/mL)) was 96.49-107.48%. The Relative stability ([1]; rat plasma, three freeze-thaw cycles (−30 °C to 25 °C), range over LQC/MQC/HQC) was 90.54-106.03% and the “increase in AUC0–t of OSIM” value [2] was “approximately 8%”.
